According to patent US9322034B2, “Compositions and methods for detecting and modulating cell death by a translation regulated gene expression system” (Wayne State University, priority 2007, dated 2016):

Columns and labels:
Assay type in all cases: cell-based, human
[1] = test system: HEK293 TRplp-fLUC subclone #3 and HEK293 TRdm-fLUC subclone #45; assay: Microplate reader temporal response, lysed cell luciferase assay; settings: 6.7 micromolar
Protocol: (§1) For this example, HEK293 cells expressing the TRplp-EYFP, TRdm-EYFP, TRplp fLUC and TRdm-fLUC expression cassettes are evaluated using a microplate reader. To quantitate the TR translational response, 24,000 cells are plated in a 96-well microtiter plates and allowed to grow for about 40 hr to achieve the proper cell density prior to incubation with a toxic agent. Each well is cultured with complete DMEM medium containing either no toxin or a defined concentration of toxin and incubated at 37 C for specific time periods. At that time, fluorescence or chemiluminescence on a FLUOstar Optima (BMG Labtech) microplate reader is used measure TR-ORF response.
(§2) For a lysed cell assay, cells are cultured as above, but in regular flat bottom 96-well trays. After toxin incubation, the 96-well plates are centrifuged as above. The media is removed, replaced with 50 microliters of Cell Lysis Buffer (25 mM Tris-phosphate (pH7.8), 10% glycerol, 1% TritonX-100, 1 mg/ml BSA, 2 mM EGTA and 2 mM DTT) and incubated for 10 min at RT. Cell lysis is verified using a phase contrast microscope, and the lysates transferred to a white bottom 96-well tray. Luminescence is developed by injection of 5 microliters of D-luciferin solution dissolved in Reaction Buffer (25 mM Glycylglycine (pH 7.8), 15 mM MgSO4, 4 mM EDTA, 15 mM Potassium phosphate, 1 mM DTT, 1 mM Coenzyme A, 6.7 mM ATP and 3.35 mM D-luciferin). After 4 sec with shaking, luminescence values were measured using the lens filter at gains of 2000-3000.
Temporal response assays are used to define the timing of TR-regulated translation during incubation in toxic levels of a cytotoxic agent. HEK293 TRplp-fLUC subclone #3 and HEK293 TRdm-fLUC subclone #45 are cultured in 6.7 micromolar calcium ionophore A23187 for various times (0 hr, 1.5 hr, 3 hr, 4.5 hr, 6 hr, 7.5 hr, 9 hr, 10.5 hr, 12 hr and 13.5 hr) and analyzed as described above using a lysed cell luciferase assay (FIG. 11).

[2] = test system: HEK293 TRplp-fLUC (subclone #3) and TRdm-fLUC (subclone #45) cells; assay: Microplate reader dose response, lysed cell luciferase assay; settings: 12 hr
Protocol: as §1, §2
Dose response assays are necessary to define toxic concentrations of candidate cytotoxic agents. To establish a TR-mediated cellular response and identify a TR effective dose, HEK293 cells transformed with the TRplp-fLUC (subclone #3) and TRdm-fLUC (subclone #45) expression cassettes are subjected to a range of subtoxic to toxic concentrations of the calcium ionophore A23187 (0, 1 nM, 10 nM, 100 nM, 1 μM, 2 μM, 4 μM, 6 μM, 8 μM, 10 μM) for 12 hr and analyzed as described above using a lysed cell luciferase assay (FIG. 10).

[3] = test system: HEK293 cell pools expressing the fLUC-TRplp-EYFP, fLUC-TRdm-EYFP, pcuLf-TRplp-EYFP or pcuLf-TRdm-EYFP expression cassettes; assay: Cytotoxicity assay by Western blot, bicistronic TR cassettes; settings: toxic doses
[4] = test system: HEK293 cells expressing the TRplp-fLUC or TRdm-fLUC expression cassette; assay: Cytotoxicity assay by Western blot, monocistronic TR-fLUC cassettes
Protocol: For this example, expression and regulation of the TRplp-EYFP, TRdm-EYFP, TRplp-fLUC, or TRdm-fLUC expression cassettes in stably transformed HEK293 cells are validated using Western blot analysis. Cell lines or pools are grown in six-well trays or 60 mm dishes to about 60% confluence and treated with complete medium supplemented with a toxic chemical. […] Control samples are treated with fresh medium. Treated and control cells were removed by pipette, collected in media, pelleted for 5 min at 800 rpm (room temperature), and either stored at −70/−80° C. or immediately processed for total proteins.
For protein extraction, cells are resuspended in equal volumes of Suspension Buffer (100 mM NaCl, 10 mM Tris-HCl [pH 7.6], 1 mM EDTA, 1 mg/mL aprotinin, 100 μg/mL PMSF) and 2×SDS Buffer (100 mM Tris-HCl [pH 6.8], 4% SDS, 20% glycerol, 200 mM DTT). Frozen cells are thawed on ice prior to resuspension. The extracts are homogenized by several passages through a syringe fitted with a 26 G needle. Samples are subsequently incubated at RT for 1-2 hr. Samples are transferred to −70/−80° C. for storage or applied to an SDS PAGE gel and examined by Western blot analysis.
To insure equal protein loading levels on Western blots, 10 μL of each protein extract are initially resolved by SDS PAGE, fixed overnight in Preblot gel fixer (25% isopropanol, 10% acetic acid), and stained in 0.05% Coomassie blue (0.05% brilliant blue R, 50% methanol, 10% acetic acid) for 20 min, RT. Gels are destained in 10% acetic acid and dried under vacuum. Using the dried gels, any necessary volume adjustment was made to samples prior to Western blotting.
Western blot analysis is a well established technique in the art and is summarized in the following. Following SDS PAGE gel resolution and protein transfer to a solid membrane support by electrophoresis, the membranes are dried overnight. […] Similarly, fLUC protein is detected using an anti-fLUC antibody (Sigma; 1:1000 dilution). After incubation with a primary antibody and extensive washing (1×PBS-T), proteins binding the primary antibody are detected by incubation with a horseradish peroxidase (HRP) conjugated anti-rabbit or anti-mouse antibody (Amersham; 1:5000 to 1:10000 dilution). Following incubation with the secondary antibody and extensive washing, reactive proteins are detected with the ECL reagent system (Amersham) as described by the vendor.
Following treatment with toxic levels of the calcium ionophore A23187, highly significant increases in fLuc protein levels are observed in the stressed and dying cells that were not evident in untreated cultures. Individual protein bands are quantitated by densitometry on a Beckman DU7400 spectrophotometer.

## CNc1ccc2oc(C[C@H]3O[C@@]4(CC[C@H]3C)O[C@H]([C@H](C)C(=O)c3ccc[nH]3)[C@H](C)C[C@H]4C)nc2c1C(=O)O [calcium ionophore A23187]
[1]; ratio to CMV-fLUC
  time up to which translational activity increases linearly, values adjusted to HEK293 CMV-fLUC cells: 12 h
[1]; raw luciferase numbers
  time post-incubation by which significant TR-specific translation is detected: ≤ 1.5 h
  time post-incubation up to which translational activity increases linearly, then plateau: 9 h
[2]; 8-10 μM
  fLuc activity at the 8-10 μM toxin concentrations: decline in fLuc activity
[2]; raw luciferase numbers
  concentration of peak in fLUC values: 6 µM
[2]; raw luciferase numbers, each cassette
  concentration at which TR-mediated translation is initially detected: 1 µM
[2]; below 1 μM (1 nM, 10 nM, 100 nM)
  TR-specific translational activity at lower subtoxic doses: no apparent TR-specific translational activity
[3]
  EYFP translation in cell pools expressing the bicistronic TR cassettes (Western blot, FIG. 4): induce EYFP translation
[4]; HEK293 TRdm-fLuc cells, n=6
  average increase in fLuc protein levels in stressed and dying cells: 524.3%
[4]; HEK293 TRplp-fLuc expressing cells, n=5
  average increase in fLuc protein levels in stressed and dying cells: 402.8%
[4]; cell pools and lines, toxic levels (5-6.7 micromolar), densitometry of Western blot
  increases in fLUC protein levels, % of the protein levels detected in untreated TRplp-fLUC/TRdm-fLUC cells: 160-800%
[4]; toxin-treated cells, FIG. 6
  fLUC protein levels in stressed and dying TR-fLUC cells, % of the protein levels of cells expressing cap-dependent CMV-fLuc: ≤ 110%
